Experimental findings from patent publication US8415469B2, “Compounds and methods for kinase modulation, and indications therefor” (Plexxikon Inc., priority 2005, dated 2013) are described below.

As usually defined, the IC50 is the concentration that inhibits the measured activity by half.

Molecules are shown by their SMILES.

Assay type in all cases: biochemical
One assay concerns the target T1, FGFR1 (Homo sapiens, UniProt P11362, C488A/C584S).
T1 construct: P1351.pET N6 BI-PTP FGFR A458-E765-X C488A, C584S; made in house; host or cells: E. coli (PTP1B co-expressed)
Put plainly: AlphaScreen kinase assay, FGFR1. Particulars: read-out: IC50, activity toward kinase FGFR. For orientation: Bead proximity is the source of the signal in Alpha formats.

A further assay concerns the target T2, Flt1 (Homo sapiens, UniProt P17948).
T2 construct: P1826.pETN6 BI-PTP FLT1 M799-D1165-X WT; His6 (N); made in house; host or cells: E. coli (PTP1B co-expressed)
T2 sequence (P17948 with tags, fused parts or gaps): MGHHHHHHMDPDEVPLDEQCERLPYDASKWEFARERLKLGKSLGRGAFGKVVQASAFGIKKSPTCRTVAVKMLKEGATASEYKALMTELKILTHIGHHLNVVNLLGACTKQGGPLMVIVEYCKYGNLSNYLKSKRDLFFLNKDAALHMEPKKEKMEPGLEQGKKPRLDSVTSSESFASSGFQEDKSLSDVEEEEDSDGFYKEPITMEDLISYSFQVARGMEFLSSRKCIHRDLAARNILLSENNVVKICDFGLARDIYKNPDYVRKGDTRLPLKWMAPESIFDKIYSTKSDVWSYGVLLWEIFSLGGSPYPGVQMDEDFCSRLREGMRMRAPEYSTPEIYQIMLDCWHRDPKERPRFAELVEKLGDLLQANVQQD
Put plainly: AlphaScreen kinase assay, Flt1. To be noted: read-out: IC50, activity toward kinase Flt1.

The target in another assay is T3, Fms (Homo sapiens, UniProt P07333).
T3 construct: purchased Upstate Biotechnology
Put plainly: AlphaScreen kinase assay, Fms. Particulars: read-out: IC50, activity toward kinase Fms.

For the next assay, the target named is T4, Kdr (Homo sapiens, UniProt P35968).
T4 construct: purchased Invitrogen (assay run by Invitrogen)
Put plainly: Z'-Lyte FRET kinase assay (Invitrogen), Kdr. Particulars: read-out: IC50, activity toward kinase Kdr.

The next assay deals with T5, Kit (Homo sapiens, UniProt P10721).
T5 construct: P1332.N6 BI PTP KIT M552-K948-X COD; His6 (N); made in house; host or cells: E. coli (PTP1B co-expressed)
Put plainly: AlphaScreen kinase assay, Kit. To be noted: read-out: IC50, activity toward kinase Kit.

In a further assay the target is T6, Ret (Homo sapiens, UniProt P07949).
T6 construct: P1378.pET-SF BI-PTP RET H661-R1012 HIS; made in house
T6 sequence (P07949 with tags, fused parts or gaps): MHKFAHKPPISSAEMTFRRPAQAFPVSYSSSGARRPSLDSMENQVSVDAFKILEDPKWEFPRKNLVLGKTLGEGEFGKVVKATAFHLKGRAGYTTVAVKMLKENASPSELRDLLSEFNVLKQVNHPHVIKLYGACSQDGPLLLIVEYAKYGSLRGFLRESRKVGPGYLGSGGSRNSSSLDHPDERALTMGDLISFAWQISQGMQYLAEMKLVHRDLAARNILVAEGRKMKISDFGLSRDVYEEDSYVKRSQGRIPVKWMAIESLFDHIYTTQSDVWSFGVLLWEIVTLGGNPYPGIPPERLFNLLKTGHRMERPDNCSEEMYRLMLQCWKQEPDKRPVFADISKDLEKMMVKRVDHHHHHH
Put plainly: AlphaScreen kinase assay, Ret. To be noted: read-out: IC50, activity toward kinase Ret.

The next assay addresses T7, B-Raf (Homo sapiens, UniProt P15056).
T7 construct: purchased Upstate Biotechnology
Put plainly: AlphaScreen kinase assay, B-Raf. Particulars: read-out: IC50, activity toward kinase B-Raf.

The target of another assay is T8, B-Raf V600E (Homo sapiens, UniProt P15056, V600E).
T8 construct: P4254. pFastBacBD-CDC37 BRAF D437-K722-X, V600E; His6 with pFastBac HT leader (TEV site) (N); made in house; host or cells: Sf9 (baculovirus; chaperone CDC37 co-expressed)
Put plainly: AlphaScreen kinase assay, B-Raf V600E. Particulars: read-out: IC50, activity toward kinase B-Raf V600E.

The target in another assay is T9, Jnk3 (Homo sapiens, UniProt P53779).
T9 construct: purchased Upstate Biotechnology
Put plainly: AlphaScreen kinase assay, Jnk3. To be noted: read-out: IC50, activity toward kinase Jnk3.

The next assay addresses T10, c-Raf-1 (Homo sapiens, UniProt P04049).
T10 construct: purchased Upstate Biotechnology
Put plainly: AlphaScreen kinase assay, c-Raf-1. To be noted: read-out: IC50, activity toward kinase c-Raf-1.

T1 sequence (P11362 458-765 C488A/C584S): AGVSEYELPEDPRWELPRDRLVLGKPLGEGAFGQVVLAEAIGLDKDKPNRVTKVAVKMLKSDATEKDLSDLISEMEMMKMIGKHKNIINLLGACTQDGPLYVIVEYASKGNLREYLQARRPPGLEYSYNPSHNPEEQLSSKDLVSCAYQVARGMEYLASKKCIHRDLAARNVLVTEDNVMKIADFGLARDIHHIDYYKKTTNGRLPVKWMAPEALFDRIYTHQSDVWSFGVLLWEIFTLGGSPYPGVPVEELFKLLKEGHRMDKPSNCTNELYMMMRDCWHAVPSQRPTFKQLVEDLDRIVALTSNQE
T10 sequence (P04049 whole entry): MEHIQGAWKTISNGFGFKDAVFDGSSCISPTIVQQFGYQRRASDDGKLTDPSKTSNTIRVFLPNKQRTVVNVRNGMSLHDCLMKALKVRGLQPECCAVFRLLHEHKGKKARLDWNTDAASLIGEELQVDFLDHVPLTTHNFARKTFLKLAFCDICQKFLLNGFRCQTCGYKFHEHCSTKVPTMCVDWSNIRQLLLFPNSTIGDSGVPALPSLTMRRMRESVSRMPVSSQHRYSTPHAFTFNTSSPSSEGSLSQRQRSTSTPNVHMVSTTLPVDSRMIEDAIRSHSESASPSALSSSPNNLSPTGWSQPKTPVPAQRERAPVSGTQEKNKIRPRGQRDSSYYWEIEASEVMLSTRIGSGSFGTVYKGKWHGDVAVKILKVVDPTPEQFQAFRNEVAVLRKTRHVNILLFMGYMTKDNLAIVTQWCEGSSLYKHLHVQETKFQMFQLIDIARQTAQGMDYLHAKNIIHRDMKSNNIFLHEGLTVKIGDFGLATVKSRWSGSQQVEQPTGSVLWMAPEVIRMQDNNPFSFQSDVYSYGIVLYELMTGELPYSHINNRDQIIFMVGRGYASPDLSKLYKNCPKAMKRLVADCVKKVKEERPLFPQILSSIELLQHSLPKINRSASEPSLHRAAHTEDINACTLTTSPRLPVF
T4 sequence (P35968 20-1356): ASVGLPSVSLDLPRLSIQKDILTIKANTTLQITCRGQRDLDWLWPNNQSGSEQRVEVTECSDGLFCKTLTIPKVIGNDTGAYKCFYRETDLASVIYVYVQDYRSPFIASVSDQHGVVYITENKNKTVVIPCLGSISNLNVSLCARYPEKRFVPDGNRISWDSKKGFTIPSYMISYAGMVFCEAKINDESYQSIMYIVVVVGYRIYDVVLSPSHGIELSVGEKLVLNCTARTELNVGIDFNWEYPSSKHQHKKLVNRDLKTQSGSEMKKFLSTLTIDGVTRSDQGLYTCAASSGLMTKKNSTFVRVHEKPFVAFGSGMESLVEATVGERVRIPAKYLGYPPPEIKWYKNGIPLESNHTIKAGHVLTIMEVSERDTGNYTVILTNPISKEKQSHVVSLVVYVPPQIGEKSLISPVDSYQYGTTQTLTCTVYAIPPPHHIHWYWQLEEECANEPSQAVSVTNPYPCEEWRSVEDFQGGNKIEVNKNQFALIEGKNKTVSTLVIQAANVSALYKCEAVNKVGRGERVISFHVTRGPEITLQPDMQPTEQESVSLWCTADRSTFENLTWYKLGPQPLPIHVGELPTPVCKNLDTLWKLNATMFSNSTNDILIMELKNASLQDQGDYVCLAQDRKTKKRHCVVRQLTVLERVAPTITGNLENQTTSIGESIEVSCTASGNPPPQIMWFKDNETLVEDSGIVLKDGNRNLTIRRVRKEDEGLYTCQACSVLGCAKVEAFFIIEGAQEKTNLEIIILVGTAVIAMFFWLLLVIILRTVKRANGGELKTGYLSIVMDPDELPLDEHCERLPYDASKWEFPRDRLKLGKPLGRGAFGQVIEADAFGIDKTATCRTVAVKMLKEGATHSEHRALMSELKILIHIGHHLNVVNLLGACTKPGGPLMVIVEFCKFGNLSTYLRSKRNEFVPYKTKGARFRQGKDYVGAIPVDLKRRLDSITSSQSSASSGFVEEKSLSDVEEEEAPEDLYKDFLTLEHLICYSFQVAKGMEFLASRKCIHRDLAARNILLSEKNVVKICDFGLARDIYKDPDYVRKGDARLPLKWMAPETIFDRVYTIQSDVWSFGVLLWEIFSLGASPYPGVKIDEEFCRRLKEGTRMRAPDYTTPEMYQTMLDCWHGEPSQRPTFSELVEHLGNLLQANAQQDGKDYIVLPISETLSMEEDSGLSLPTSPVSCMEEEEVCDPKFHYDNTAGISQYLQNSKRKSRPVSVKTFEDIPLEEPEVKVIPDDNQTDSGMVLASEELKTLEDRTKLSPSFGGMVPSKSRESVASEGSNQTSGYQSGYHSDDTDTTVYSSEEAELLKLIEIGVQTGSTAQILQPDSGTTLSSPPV
T7 sequence (P15056 whole entry): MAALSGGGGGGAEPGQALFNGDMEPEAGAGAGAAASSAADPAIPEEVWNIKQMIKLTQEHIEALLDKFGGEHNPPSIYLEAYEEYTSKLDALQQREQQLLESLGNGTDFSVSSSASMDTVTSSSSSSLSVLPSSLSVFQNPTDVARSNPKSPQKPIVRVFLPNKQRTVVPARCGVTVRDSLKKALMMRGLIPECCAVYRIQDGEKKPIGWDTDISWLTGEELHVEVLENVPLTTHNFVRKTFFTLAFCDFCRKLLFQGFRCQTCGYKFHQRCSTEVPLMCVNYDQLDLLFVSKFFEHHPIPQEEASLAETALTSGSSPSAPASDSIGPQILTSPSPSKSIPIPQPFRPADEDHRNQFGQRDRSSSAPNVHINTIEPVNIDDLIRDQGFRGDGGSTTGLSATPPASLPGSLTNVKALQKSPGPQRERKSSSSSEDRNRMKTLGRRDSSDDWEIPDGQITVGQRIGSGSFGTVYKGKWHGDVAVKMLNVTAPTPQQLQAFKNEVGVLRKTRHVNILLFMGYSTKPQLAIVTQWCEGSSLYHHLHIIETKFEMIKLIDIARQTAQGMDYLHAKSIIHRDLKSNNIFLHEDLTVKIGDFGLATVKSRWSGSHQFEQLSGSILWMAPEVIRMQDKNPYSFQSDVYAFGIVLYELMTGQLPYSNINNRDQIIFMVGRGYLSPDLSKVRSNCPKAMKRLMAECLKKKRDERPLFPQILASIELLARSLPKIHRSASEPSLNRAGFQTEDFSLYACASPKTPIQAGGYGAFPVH
T5 sequence (P10721 with tags, fused parts or gaps): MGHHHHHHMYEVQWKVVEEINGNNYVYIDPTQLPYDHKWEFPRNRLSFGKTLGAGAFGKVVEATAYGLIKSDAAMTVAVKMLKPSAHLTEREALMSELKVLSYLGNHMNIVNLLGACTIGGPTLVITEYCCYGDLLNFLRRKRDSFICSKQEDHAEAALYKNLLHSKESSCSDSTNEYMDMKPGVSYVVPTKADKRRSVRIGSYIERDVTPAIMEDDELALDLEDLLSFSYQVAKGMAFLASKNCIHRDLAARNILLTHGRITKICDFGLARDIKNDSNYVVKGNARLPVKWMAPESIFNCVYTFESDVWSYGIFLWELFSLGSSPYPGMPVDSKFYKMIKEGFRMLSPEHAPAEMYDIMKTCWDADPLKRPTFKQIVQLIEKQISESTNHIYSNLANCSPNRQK
T9 sequence (P53779 whole entry): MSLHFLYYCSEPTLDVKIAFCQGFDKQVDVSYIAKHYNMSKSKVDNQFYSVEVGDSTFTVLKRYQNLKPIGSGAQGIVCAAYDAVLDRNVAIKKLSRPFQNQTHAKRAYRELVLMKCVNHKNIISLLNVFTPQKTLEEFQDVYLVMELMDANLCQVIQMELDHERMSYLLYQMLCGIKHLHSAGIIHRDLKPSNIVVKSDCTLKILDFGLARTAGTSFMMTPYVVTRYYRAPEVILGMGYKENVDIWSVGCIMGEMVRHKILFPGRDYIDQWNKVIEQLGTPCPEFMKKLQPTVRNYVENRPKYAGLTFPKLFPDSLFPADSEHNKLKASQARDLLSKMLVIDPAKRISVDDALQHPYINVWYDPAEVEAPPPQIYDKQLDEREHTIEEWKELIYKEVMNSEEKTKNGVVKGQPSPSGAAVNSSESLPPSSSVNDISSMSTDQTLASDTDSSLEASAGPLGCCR
T8 sequence (P15056 with tags, fused parts or gaps V600E): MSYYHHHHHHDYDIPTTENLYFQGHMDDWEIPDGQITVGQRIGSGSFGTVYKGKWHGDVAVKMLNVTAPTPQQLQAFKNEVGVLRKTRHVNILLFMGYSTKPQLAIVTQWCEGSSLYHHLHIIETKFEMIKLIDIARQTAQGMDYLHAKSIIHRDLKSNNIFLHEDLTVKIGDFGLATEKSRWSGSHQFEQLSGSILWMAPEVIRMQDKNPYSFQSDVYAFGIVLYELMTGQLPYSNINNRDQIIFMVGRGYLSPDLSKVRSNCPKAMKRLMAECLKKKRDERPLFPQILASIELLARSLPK
Excerpt for Flt1: AlphaScreen assay was used to screen additional kinases. The assay is similarly dependent on the phosphorylation of a peptide substrate. In this assay, an antibody that recognizes phosphorylated substrate is bound to an acceptor bead. The peptide substrate is attached to biotin, which binds to a donor head that contains streptavidin. Thus phosphorylated substrate is bound by antibody and streptavidin, bringing the donor and acceptor heads into close proximity when kinase is not inhibited. The donor produces singlet oxygen which results in emission from the acceptor when they are in close proximity. Conversely, when kinase is inhibited, the donor and acceptor beads are not associated and the emission from the acceptor is reduced.
AlphaScreen assays were done using compounds dissolved in DMSO to a concentration of 20 mM. The compounds were diluted accordingly to the desired final concentrations in each sample well, using 1:3 serial dilution for a total of 8 concentration points. Plates were prepared such that each kinase reaction is 20 μl in 1× kinase buffer, 5% DMSO and 10 μM ATP. After incubation of the kinase reaction for 1 hour at room temperature, 5 μl of donor beads in stop buffer (50 mM EDTA in 1× kinase buffer) was added, the sample was mixed and incubated for 20 minutes at room temperature before adding 5 μl of acceptor beads in stop buffer. The samples were incubated for 60 minutes at room temperature and the signal per well was read on AlphaQuest reader.

Turning to `COc1ccc(F)c(C(=O)c2c[nH]c3ncccc23)c1` [Compound P-0103], the 50% inhibitory concentration (IC50) on FGFR1, on Flt1, at Fms, on Kdr, on Kit and at Ret was at most 10 µM each time.
In the case of `Fc1ccc(NCc2c[nH]c3ncccc23)cc1` [Compound P-0144], the IC50 on Kdr is at most 10 µM.
On to `COc1cccc(C(=O)c2c[nH]c3ncccc23)c1` [Compound P-0168], for which the IC50 on FGFR1, at Kdr and on Kit was at most 10 µM in each case.
Consider `Oc1ccccc1-c1c[nH]c2ncccc12` [Compound P-0182], for which the IC50 at Kdr was at most 10 µM.
Take `CC(C)CNc1ccc(Cc2c[nH]c3ncccc23)cn1` [Compound P-0192]: the half-maximal inhibitory concentration (IC50) at B-Raf, on B-Raf V600E, at FGFR1 and on Kdr was at most 10 µM in each case.
As to `O=[N+]([O-])c1cccc(-c2ccnc3[nH]ccc23)c1` [Compound P-0197], the half-maximal inhibitory concentration (IC50) at Kdr is at most 10 µM.
Take `Cc1cc(C(=O)c2c[nH]c3nccc(-c4cccc(NS(C)(=O)=O)c4)c23)n(C)n1` [Compound P-0234]: at Kdr, the IC50 is at most 10 µM.
As for `COc1cccc(C(O)c2c[nH]c3ncc(Br)cc23)c1F` (stereo not shown) [Compound P-0242], the 50% inhibitory concentration (IC50) at B-Raf V600E, at FGFR1 and on Kdr was at most 10 µM each time.
With `O=C(c1cc([N+](=O)[O-])ccc1F)c1c[nH]c2ncccc12` [Compound P-0243], the IC50 at B-Raf V600E and at Kdr was at most 10 µM in each case.
On to `CCc1cnc2[nH]cc(C(=O)c3cccc(OC)c3)c2c1` [Compound P-0267], for which the half-inhibitory concentration (IC50) on FGFR1 and on Kdr was at most 10 µM each time.
Turning to `COc1ccc(C(O)c2c[nH]c3ncccc23)cc1` (stereo not shown) [Compound P-0268], at Kdr, the IC50 was at most 10 µM.
For `COc1ccc(CNc2ccc(Cc3c[nH]c4ncccc34)cn2)cc1` [Compound P-0274], the IC50 at B-Raf V600E, at FGFR1, at Flt1, on Fms and on Kdr was at most 10 µM throughout.
Regarding `CC(C)Cc1nc(-c2ccnc3[nH]ccc23)no1` [Compound P-0288], the IC50 at Kdr is at most 10 µM.
For `COc1ccc(Cc2c[nH]c3nccc(-c4ccsc4)c23)cn1` [Compound P-0289], the concentration for half-maximal inhibition (IC50) at FGFR1, at Kdr and at Ret was at most 10 µM in each case.
`O=C(c1cccc(Cl)c1F)c1c[nH]c2ncc(Br)cc12` [Compound P-0299, (5-Bromo-1H-pyrrolo[2,3-b]pyridin-3-yl)-(3-chloro-2-fluoro-phenyl)-methanone]: the half-maximal inhibitory concentration (IC50) on Kdr is at most 10 µM.
For the molecule `c1cc(Cc2c[nH]c3ncccc23)cc(OCCOC2CCCCO2)c1` (stereo not shown) [Compound P-0326], the half-maximal inhibitory concentration (IC50) at FGFR1, on Flt1, on Kdr and on Kit was at most 10 µM in each case.
In the case of `COc1cccc(Cc2c[nH]c3nccc(Br)c23)n1` [Compound P-0339], the half-inhibitory concentration (IC50) on FGFR1, on Kdr and on Ret was at most 10 µM each time.
As to `Clc1cccc(-c2ccnc3[nH]ccc23)c1` [Compound P-0427], the IC50 at Kdr and at Kit was at most 10 µM in each case.
Turning to `c1coc(-c2c[nH]c3ncccc23)c1` [Compound P-0455], the IC50 at Flt1 and at Kdr was at most 10 µM throughout.
Consider `Brc1ccnc2[nH]ccc12` [Compound P-0458], for which the 50% inhibitory concentration (IC50) on Kdr was at most 10 µM.
In the case of `COc1cc(OC)cc(C(=O)c2c[nH]c3ncccc23)c1` [Compound P-0473], the IC50 at FGFR1, on Kdr and at Kit was at most 10 µM in each case.
Take `Cc1ccccc1-c1c[nH]c2ncccc12` [Compound P-0482]: on Kdr, the concentration for half-maximal inhibition (IC50) is at most 10 µM.
With `O=[N+]([O-])c1cc(S(=O)(=O)NCc2c[nH]c3ncccc23)sc1Cl` [Compound P-0777], the IC50 on B-Raf V600E, at Flt1 and at Kdr was at most 10 µM in each case.
For `Cc1cc(C(=O)c2c[nH]c3ncc(-c4cccc(N)c4)cc23)no1` [Compound P-0796], the IC50 at Kdr, at Kit and on Ret was at most 10 µM each time.
As for `c1cc2cc(Nc3ccc(N4CCOCC4)cc3)cnc2[nH]1` [Compound P-0981], the IC50 on B-Raf V600E and on Kdr was at most 10 µM in each case.
Consider `CC(=O)Nc1cccc(Nc2cnc3[nH]ccc3c2)c1` [Compound P-1032], for which, at Jnk3, the IC50 is at most 10 µM.
Consider `c1ccc2sc(-c3cnc4[nH]ccc4c3)cc2c1` [Compound P-1087], for which the IC50 on Jnk3 is at most 10 µM.
In the case of `Clc1ccc(-c2cnc3[nH]ccc3c2)s1` [Compound P-1088], the IC50 at Jnk3 is at most 10 µM.
For `COc1ccc(Nc2ccc3cc[nH]c3n2)cc1` [Compound P-1355, (4-Methoxy-phenyl)-(1H-pyrrolo[2,3-b]pyridin-6-yl)-amine], the IC50 on Jnk3 was at most 10 µM.
Consider `O=C(c1c(Cl)ccc(OCC(F)(F)F)c1F)c1c[nH]c2ncc(-c3cccnc3)cc12` [Compound P-1395, [6-Chloro-2-fluoro-3-(2,2,2-trifluoro-ethoxy)-phenyl]-(5-pyridin-3-yl-1H-pyrrolo[2,3-b]pyridin-3-yl)-methanone], for which the half-inhibitory concentration (IC50) on B-Raf, on B-Raf V600E, at c-Raf-1, on FGFR1, at Flt1 and at Fms was at most 10 µM in each case. The IC50 on Kit is at most 10 µM.
`COc1cnc2[nH]cc(C(=O)c3c(F)ccc(NS(=O)(=O)c4ccc(C(F)(F)F)cc4)c3F)c2c1` [Compound P-1542, N-[2,4-Difluoro-3-(5-methoxy-1H-pyrrolo[2,3-b]pyridine-3-carbonyl)-phenyl]-4-trifluoromethyl-benzenesulfonamide]: the IC50 on B-Raf, on B-Raf V600E, at c-Raf-1, at FGFR1, at Flt1 and on Fms was at most 10 µM each time. For the same molecule, at Kit, the IC50 is at most 10 µM.
In the case of `COc1cnc2[nH]cc(Sc3ccccn3)c2c1` [Compound P-1561], the concentration for half-maximal inhibition (IC50) on B-Raf V600E, on FGFR1 and on Jnk3 was at most 10 µM each time.
Consider `COc1cnc2[nH]cc(C(=O)c3c(F)ccc(NS(=O)(=O)c4cccc(F)c4)c3F)c2c1` [Compound P-1581, N-[2,4-Difluoro-3-(5-methoxy-1H-pyrrolo[2,3-b]pyridine-3-carbonyl)-phenyl]-3-fluoro-benzenesulfonamide], for which the IC50 at B-Raf, at B-Raf V600E, at c-Raf-1, at FGFR1, on Flt1 and on Fms was at most 10 µM throughout. At Kit, the IC50 is at most 10 µM.
On to `O=C(c1c(F)ccc(NS(=O)(=O)c2cccc(F)c2)c1F)c1c[nH]c2ncc(Cl)cc12` [Compound P-1583, N-[3-(5-Chloro-1H-pyrrolo[2,3-b]pyridine-3-carbonyl)-2,4-difluoro-phenyl]-3-fluoro-benzenesulfonamide], for which the concentration for half-maximal inhibition (IC50) on B-Raf, on B-Raf V600E, on c-Raf-1, at FGFR1, at Flt1 and at Fms was at most 10 µM throughout. In addition, at Kit, the concentration for half-maximal inhibition (IC50) is at most 10 µM.
